Data on 16 compounds can be found in patent US20220098203A1 (priority 2018, published 2022).

In one assay the test system is HCT116 MTAP-/-. Kind of assay: Inhibition of cellular proliferation (Cell Titer Glo), HCT116 MTAP-/-. Type of assay: cell-based, human. The following applies: Homo sapiens, HCT-116, 96 h, Table 5a, 4 days, read-out: 4 Day Relative Growth Inhibition (MTAP −/−). As to the method:
(§1) Test compound impact on cancer cell growth was assessed by treating cancer cells with compound for 4 days and then measuring proliferation using an ATP-based cell proliferation readout (Cell Titer Glo, Promega Corporation).
(§2) In a typical assay an isogenic pair of HCT116 human colon carcinoma cell lines which vary only in MTAP deletion status (HCT116 MTAP+/+ and HCT116 MTAP−/−) were plated in 96-well dishes at appropriate cell density. Following 24 hours, cells were then treated with the candidate MAT2A inhibitor. […] Compound was then transferred to a working stock plate in cell culture media by adding 5 μL of compound in DMSO to 495 μL of cell culture media. This working stock was then added to cells via a further 5-fold dilution, by adding 25 μL of working stock to 100 μL of cells in culture media. Following compound addition, cells were incubated at 37° C./5% CO2 for 4 days.
(§3) The plate was then covered with aluminum foil and shaken for 15 minutes to ensure complete mixing and full cell lysis. […] This luminescence measure was converted to a proliferation index by subtracting from each data point the ATP luminescence signal measured from a bank (no cells) well and dividing by the ATP luminescence signal measured in 0.2% DMSO control well adjusted for signal in blank well.

For assay [1], the system named is SAM in HCT116 MTAP-deleted cells. Kind of assay: Cellular assay of target engagement (SAM), LC-MS/MS. Type of assay: cell-based, human. The following applies: Homo sapiens, HCT-116, Table 5a, 72 h, read-out: Cell 72 h SAM Inhibition (MTAP −/−). Here is the method:
Measurement of MAT2A activity in cells was made by direct quantitation of the abundance of the product of its enzymatic activity, SAM. Cancer cells were treated with candidate MAT2A inhibitors for a suitable incubation period, and the cells were then lysed using a reagent which quenched any further enzyme activity. Soluble metabolites including SAM were collected and SAM itself was directly measured from the lysate using quantitative LC-MS/MS.
A typical assay was performed using an HCT116 human colon carcinoma cell line which was genetically engineered to delete the MTAP gene (commercially available from Horizon Discovery). […] Cells were plated in 96-well dishes at appropriate cell density. Following 24 hours, cells were then treated with the candidate MAT2A inhibitor. […] Compound was then transferred to a working stock plate in cell culture media by adding 5 μL of compound in DMSO to 495 μL of cell culture media. This working stock was then added to cells via a further 5-fold dilution, by adding 25 μL of working stock to 100 μL of cells in culture media. Following compound addition, cells were incubated at 37° C./5% CO2 for 72 hrs.
To quantitate SAM levels following compound treatment, cells were gently washed once in ammonium carbonate buffer (75 mM at pH 7.4), placed on dry ice, and lysed with metabolite extraction buffer (80% cold methanol and 20% water (v/v) with acetic acid at 1M final concentration with 200 ng/mL deuterated d3-SAM as internal control). Following centrifugation at 4° C. at 3,200 rpm for 30 minutes, the supernatant was collected and stored at −80° C. until analysis by Liquid Chromatography with tandem Mass Spectrometry (LC-MS/MS). LC-MS/MS analysis was performed using an API6500 Mass Spectrometer (Sciex, Framingham, Mass., USA) operating in positive ion spray mode and equipped with a Waters UPLC Acquity (Waters, Milford, Mass., USA) BEH Amide column.

The next assay has as its system HCT116 MTAP+/+. Kind of assay: Inhibition of cellular proliferation (Cell Titer Glo), HCT116 MTAP+/+. Type of assay: cell-based. The following applies: Homo sapiens, HCT-116, 96 h, Table 5a, 4 days, read-out: 4 Day Relative Growth Inhibition (MTAP +/+). As to the method: as §1, §2, §3
The target in a further assay is T1, MAT2A homodimer (Homo sapiens, UniProt P31153).
T1 construct: inferred from the Ni sepharose purification and imidazole elution; made in house; host or cells: SF9 insect cells, recombinant baculovirus (Bac to Bac, pFASTBAC1)
T1 sequence (P31153 whole entry): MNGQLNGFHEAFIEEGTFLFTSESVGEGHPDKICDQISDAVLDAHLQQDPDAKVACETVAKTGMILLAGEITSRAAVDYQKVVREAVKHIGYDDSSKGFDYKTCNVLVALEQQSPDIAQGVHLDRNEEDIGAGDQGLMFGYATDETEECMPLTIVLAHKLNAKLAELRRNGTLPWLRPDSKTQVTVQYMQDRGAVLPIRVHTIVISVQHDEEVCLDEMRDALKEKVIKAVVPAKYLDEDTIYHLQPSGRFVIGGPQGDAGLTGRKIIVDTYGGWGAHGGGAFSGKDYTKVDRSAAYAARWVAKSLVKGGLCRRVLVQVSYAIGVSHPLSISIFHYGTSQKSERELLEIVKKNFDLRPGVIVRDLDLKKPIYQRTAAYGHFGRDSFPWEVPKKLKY
Kind of assay: MAT2A biochemical assay (liberated phosphate, PiColorLock Gold). Conditions: Table 5a; MAT2A biochemical assay; read-out: Enzyme Inhibition. In a few lines:
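Baculovirus/Sf9-expressed, Ni-purified MAT2A homodimer preincubated with compound 60 min at 25 °C, then reacted 60 min at 25 °C with substrate mix of 500 μM ATP and 400 μM L-methionine, pH 7.0 (mix, not final levels). Phosphate released with SAM measured by PiColorLock Gold against phosphate standard curve.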

With `CCOc1ccc2c(n1)N(c1ccc(OC(F)F)cc1)C(=O)N(c1ccc3nccn3c1)C2` [Example 101, 1-(4-(difluoromethoxy)phenyl)-7-ethoxy-3-(imidazo[1,2-a]pyridin-6-yl)-3,4-dihydropyrido[2,3-d]pyrimidin-2(1H)-one], the IC50 in the assay with HCT116 MTAP-/- was 100 to 1000 nM; in assay [1], 100 to 1000 nM; in the assay on HCT116 MTAP+/+, above 1000 nM; on MAT2A homodimer, below 100 nM.
Consider `[2H]C([2H])([2H])Oc1ccc(N2C(=O)N(c3ccc4ncsc4c3)Cc3ccc(OCC(F)F)nc32)cc1` [Example 102, 3-(benzo[d]thiazol-6-yl)-7-(2,2-difluoroethoxy)-1-(4-(methoxy-d3)phenyl)-3,4-dihydropyrido[2,3-d]pyrimidin-2(1H)-one], for which the IC50 in the assay with HCT116 MTAP-/- was 100 to 1000 nM; in assay [1], below 100 nM; in the assay with HCT116 MTAP+/+ it was above 1000 nM; on MAT2A homodimer, below 100 nM.
`[2H]C([2H])([2H])Oc1ccc(N2C(=O)N(c3ccc4nn(C)c(OC([2H])([2H])[2H])c4c3)Cc3ccc(OCC(F)F)nc32)cc1` [Example 103, 7-(2,2-difluoroethoxy)-3-(3-(methoxy-d3)-2-methyl-2H-indazol-5-yl)-1-(4-(methoxy-d3)phenyl)-3,4-dihydropyrido[2,3-d]pyrimidin-2(1H)-one]: the IC50 was below 100 nM in the assay with HCT116 MTAP-/-, below 100 nM in assay [1], above 1000 nM with HCT116 MTAP+/+ and below 100 nM on MAT2A homodimer.
For the compound `[2H]C([2H])([2H])Oc1ccc(N2C(=O)N(c3ccc4nn(C)c(OC)c4c3)Cc3ccc(OCC(F)F)nc32)cc1` [Example 104, 7-(2,2-difluoroethoxy)-3-(3-methoxy-2-methyl-2H-indazol-5-yl)-1-(4-(methoxy-d3)phenyl)-3,4-dihydropyrido[2,3-d]pyrimidin-2(1H)-one], the IC50 was below 100 nM with HCT116 MTAP-/-, below 100 nM in assay [1], 100 to 1000 nM in the assay on HCT116 MTAP+/+ and below 100 nM on MAT2A homodimer.
On to `[2H]C([2H])([2H])Oc1ccc(N2C(=O)N(c3ccc4nn(C)c(C)c4c3)Cc3ccc(OCC(F)F)nc32)cc1` [Example 105, 7-(2,2-difluoroethoxy)-3-(2,3-dimethyl-2H-indazol-5-yl)-1-(4-(methoxy-d3)phenyl)-3,4-dihydropyrido[2,3-d]pyrimidin-2(1H)-one], for which the IC50 with HCT116 MTAP-/- was below 100 nM; in assay [1], below 100 nM; in the assay with HCT116 MTAP+/+, 100 to 1000 nM; on MAT2A homodimer it was below 100 nM.
Regarding `CCOc1ccc2c(n1)N(c1ccc(OC(F)F)cc1)C(=O)N(c1ccn3nccc3c1)C2` [Example 106, 1-(4-(difluoromethoxy)phenyl)-7-ethoxy-3-(pyrazolo[1,5-a]pyridin-5-yl)-3,4-dihydropyrido[2,3-d]pyrimidin-2(1H)-one], the IC50 in the assay on HCT116 MTAP-/- is 100 to 1000 nM; in assay [1], below 100 nM; in the assay with HCT116 MTAP+/+, above 1000 nM; at MAT2A homodimer, below 100 nM.
On to `CCOc1ccc2c(n1)N(c1ccc(OC(F)F)cc1)C(=O)N(c1ccc(=O)n(C)c1)C2` [Example 107, 1-(4-(difluoromethoxy)phenyl)-7-ethoxy-3-(1-methyl-6-oxo-1,6-dihydropyridin-3-yl)-3,4-dihydropyrido[2,3-d]pyrimidin-2(1H)-one], for which the IC50 in the assay on HCT116 MTAP-/- is 100 to 1000 nM; in assay [1], 100 to 1000 nM; in the assay with HCT116 MTAP+/+, above 1000 nM; on MAT2A homodimer it was below 100 nM.
Regarding `CCOc1ccc2c(n1)N(c1ccc(OC(F)F)cc1)C(=O)N(c1ccc3nncn3c1)C2` [Example 108, 3-([1,2,4]triazolo[4,3-a]pyridin-6-yl)-1-(4-(difluoromethoxy)phenyl)-7-ethoxy-3,4-dihydropyrido[2,3-d]pyrimidin-2(1H)-one], the IC50 in the assay with HCT116 MTAP-/- was 100 to 1000 nM; in assay [1], 100 to 1000 nM; with HCT116 MTAP+/+, above 1000 nM; at MAT2A homodimer it was below 100 nM.
`CCOc1ccc2c(n1)N(c1ccc(OC(F)F)cc1)C(=O)N(c1ccc3nnn(C)c3c1)C2` [Example 109]: the IC50 in the assay on HCT116 MTAP-/- is 100 to 1000 nM; in assay [1] it was below 100 nM; in the assay on HCT116 MTAP+/+, above 1000 nM; at MAT2A homodimer, below 100 nM.
In the case of `CCOc1ccc2c(n1)N(c1ccc(OC(F)F)cc1)C(=O)N(c1ccc3nn(C)nc3c1)C2` [Example 110, 1-(4-(difluoromethoxy)phenyl)-7-ethoxy-3-(2-methyl-2H-benzo[d][1,2,3]triazol-5-yl)-3,4-dihydropyrido[2,3-d]pyrimidin-2(1H)-one], the IC50 in the assay on HCT116 MTAP-/- was 100 to 1000 nM; in assay [1], below 100 nM; in the assay with HCT116 MTAP+/+, above 1000 nM; at MAT2A homodimer it was below 100 nM.
Consider `CCOc1ccc2c(n1)N(c1ccc(OC(F)F)cc1)C(=O)N(c1ccc3ncccc3c1)C2` [Example 112, 1-(4-(difluoromethoxy)phenyl)-7-ethoxy-3-(quinolin-6-yl)-3,4-dihydropyrido[2,3-d]pyrimidin-2(1H)-one], for which the IC50 in the assay with HCT116 MTAP-/- is 100 to 1000 nM; in assay [1] it was 100 to 1000 nM; in the assay on HCT116 MTAP+/+ it was above 1000 nM; on MAT2A homodimer it was below 100 nM.
With `COc1ccc(N2Cc3ccc(NCC(F)(F)F)nc3N(c3ccc(-c4ncn[nH]4)cc3)C2=O)cc1` [Example 113, 1-(4-(1H-1,2,4-triazol-5-yl)phenyl)-3-(4-methoxyphenyl)-7-((2,2,2-trifluoroethyl)amino)-3,4-dihydropyrido[2,3-d]pyrimidin-2(1H)-one], the IC50 was below 100 nM in the assay with HCT116 MTAP-/-, below 100 nM in assay [1], above 1000 nM with HCT116 MTAP+/+ and below 100 nM on MAT2A homodimer.
With `Cn1cc2cc(N3Cc4ccc(NCC(F)(F)F)nc4N(c4ccc(-c5nc[nH]n5)cc4)C3=O)ccc2n1` [Example 114, 1-(4-(1H-1,2,4-triazol-3-yl)phenyl)-3-(2-methyl-2H-indazol-5-yl)-7-((2,2,2-trifluoroethyl)amino)-3,4-dihydropyrido[2,3-d]pyrimidin-2(1H)-one], the IC50 in the assay on HCT116 MTAP-/- was below 100 nM; in assay [1] it was below 100 nM; in the assay with HCT116 MTAP+/+, above 1000 nM; at MAT2A homodimer it was below 100 nM.
As for `[2H]C([2H])([2H])Oc1ccc(N2C(=O)N(c3ccc4nn(C5CC5)cc4c3)Cc3ccc(OCC(F)F)nc32)cc1` [Example 115, 3-(2-cyclopropyl-2H-indazol-5-yl)-7-(2,2-difluoroethoxy)-1-(4-methoxy-d3-phenyl)-3,4-dihydropyrido[2,3-d]pyrimidin-2(1H)-one], the IC50 was below 100 nM in the assay on HCT116 MTAP-/-, 100 to 1000 nM in assay [1], above 1000 nM with HCT116 MTAP+/+ and below 100 nM on MAT2A homodimer.
Consider `[2H]C([2H])([2H])Oc1ccc(N2C(=O)N(c3ccc4nn(C(C)C)cc4c3)Cc3ccc(OCC(F)F)nc32)cc1` [Example 118, 7-(2,2-difluoroethoxy)-3-(2-isopropyl-2H-indazol-5-yl)-1-(4-methoxy-d3-phenyl)-3,4-dihydropyrido[2,3-d]pyrimidin-2(1H)-one], for which the IC50 in the assay on HCT116 MTAP-/- is below 100 nM; in assay [1], 100 to 1000 nM; with HCT116 MTAP+/+, above 1000 nM; at MAT2A homodimer it was below 100 nM.
On to `COc1ccc(N2C(=O)N(c3ccc4nccnc4c3)Cc3cnc(NCC(F)(F)F)nc32)cc1` [Example 233, 1-(4-methoxyphenyl)-3-(quinoxalin-6-yl)-7-((2,2,2-trifluoroethyl)amino)-3,4-dihydropyrimido[4,5-d]pyrimidin-2(1H)-one], for which the IC50 in the assay with HCT116 MTAP-/- is 100 to 1000 nM; in assay [1], 100 to 1000 nM; on MAT2A homodimer, below 100 nM.
